Patent EP2250163B1, “HEPATITIS C VIRUS INHIBITORS” (Bristol-Myers Squibb Company, priority 2008, dated 2009)

System: HCV 1b-377-neo replicon cells
Experiment: HCV replicon assay, wild-type cells
Type: cell-based
Conditions: Hepatitis C virus, against the HCV 1b genotype, read-out: EC50 Range
Description: An HCV Replion assay was utilized in the present disclosure, and was prepared, conducted and validated as described in commonly owned PCT/US2006/022197 and in O'Boyle et al. Antimicrob Agents Chemother. 2005 Apr;49(4):1346-53.
HCV 1b-377-neo replicon cells were used to test the currently described compound series as well as cells resistant to compound A due to a Y2065H mutation in NS5A (described in application PCT/US2006/022197). The compounds tested were determined to have more than 10-fold less inhibitory activity on cells resistant to compound A than wild-type cells indicating a related mechanism of action between the two compound series. Thus, the compounds of the present disclosure can be effective to inhibit the function of the HCV NS5A protein and are understood to be as effective in combinations as previously described in application PCT/US2006/022197 and commonly owned WO/04014852. Further, the compounds of the present disclosure can be effective against the HCV 1b genotype. It should also be understood that the compounds of the present disclosure can inhibit multiple genotypes of HCV. […] In one embodiment compounds of the present disclosure are active against the 1a, 1b, 2a, 2b, 3a, 4a, and 5a genotypes.

Compound | EC50 [nM]
COCC[C@H](NC(=O)OC)C(=O)N[C@H](c1nc(-c2ccc(-c3ccc(-c4c[nH]c([C@@H]5CCCN5C(=O)[C@H](CCOC)NC(=O)OC)n4)cc3)cc2)c[nH]1)C(C)C [Example R20, methyl ((1S)-3-methoxy-1-(((2S)-2-(4-(4'-(2-((1S)-1-((N-(methoxycarbonyl)-O-methyl-L-homoseryl)amino)-2-methylpropyl)-1H-imidazol-4-yl)-4-biphenylyl)-1H-imidazol-2-yl)-1-pyrrolidinyl)carbonyl)propyl)carbamate] | 0.001 to 0.999
COC(=O)N[C@H](C(=O)Nc1ncc(-c2ccc(-c3ccc(-c4cnc([C@@H]5CCCN5C(=O)[C@@H](NC(=O)OC)C(C)C)[nH]4)cc3)cc2)[nH]1)C(C)C [Example R33, (S)-2-methoxycarbonylamino-N-(5-(4'-(2-((S)-1-((S)-2-methoxycarbonylamino-3-methylbutanoyl)pyrrolidin-2-yl)-1H-imidazol-5-yl)biphenyl-4-yl)-1H-imidazol-2-yl)-3-methylbutanamide] | 1 to 99
